Reference: patent publication US12239662B2, “Compositions for inhibiting anaerobic microorganisms” (LPOXY THERAPEUTICS, INC, priority 2020, dated 2025)
Read-outs that look alike come from different tables or passages of the source.

Assays:
[1] = up to the maximum bolus tested, 200 microliters every 6 hours (8 mL/kg per bolus; 32 mL/kg/day)
Protocol: In a separate experiment using the above conditions the tolerance of bolus injection of 100% oxygen gas was tested.

[2] = system: Clostridioides difficile ATCC 43255; settings: for onset of action: compared between treatment groups; for cure rate: no recurrence over 14 days after inoculation; for clinical severity and recovery: total clinical score and daily weights, compared to infection control group; for survival: treatment study day 0 to day 4, followed 14 days after inoculation, 10 mice per group
Excerpt: Thirty C57BL/6 female mice (18-22 g) fitted with duodenal catheters externalized and fitted with access button ports were purchased from Charles River Laboratories and singly housed in a temperature and humidity-controlled room with a 12-hour light cycle. The mice were divided into 3 groups of 10. All procedures used in these experimental protocols were in compliance with the Animal Welfare Act, the Guide for the Care and Use of Laboratory Animals, and the Office of Laboratory Animal Welfare.
The mice were pretreated with an antibiotic cocktail in their drinking water for 8 consecutive days. This antibiotic cocktail was composed of 1% glucose, 500 mcg/mL kanamycin, 44 mcg/mL gentamicin, 1062.5 units per milliliter colistin, 269 mcg/mL metronidazole, 156 mcg/mL ciprofloxacin, 100 mcg/mL ampicillin, and 56 mcg/mL vancomycin. The antibiotic cocktail and drinking water was replaced every 2 to 3 days. Five days prior to infection the antibiotic water was removed and normal drinking water was provided to the animals. Three days prior to infection the animals received a single dose of clindamycin 10 mg per kilogram via oral administration in a volume of 10 mL per kilogram.
On study Day 0 mice were inoculated with the bacterial suspension of 5×10^5 CFU Clostridioides difficile ATCC 43255 via oral gavage. Eight hours after inoculation administration of vehicle, antibiotic control, and test article was initiated according to the following. The vehicle a.k.a. infection control group of 10 mice received 80 μL per hour 100% pure nitrogen gas via duodenal catheter. The infection control group of 10 mice received 50 mg/kg vancomycin via oral gavage once daily. […] Administration was continued from study day 0 to study day 4, a total of 5 days. The mice were followed for 14 days after inoculum recording daily weights and clinical observations. Animals that appeared severely moribund were euthanized. At the end of the study all animals were humanely euthanized.

O=O [EAT, oxygen]
adverse effects of bolus injection [1]: No adverse effects | adverse effects due to gas infusion ([2]; efficacy experiments, infusion 3.2 mL/kg/hr, 76.8 mL/kg/day via duodenal catheter): no adverse effects | onset of action ([2]; mouse CDI model): slower onset of action | animals showing signs of infection in the 2nd week after inoculation and treatment (recurrence) ([2]; mouse CDI model, days 8-14, after treatment was complete): no recurrent infections | cure rate ([2]; mouse CDI model): 100% | clinical severity and recovery ([2]; mouse CDI model): mildly ill compared to the infection control group, recover rapidly | clinical severity and recovery ([2]; mouse CDI model, listed as Enteric aerobization therapy): reduces the severity of disease, accelerates recovery | survival ([2]; mouse CDI model): 100%

CN[C@H](CC(C)C)C(=O)N[C@H]1C(=O)N[C@@H](CC(N)=O)C(=O)N[C@H]2C(=O)N[C@H]3C(=O)N[C@H](C(=O)N[C@H](C(=O)O)c4cc(O)cc(O)c4-c4cc3ccc4O)[C@H](O)c3ccc(c(Cl)c3)Oc3cc2cc(c3O[C@@H]2O[C@H](CO)[C@@H](O)[C@H](O)[C@H]2O[C@H]2C[C@](C)(N)[C@H](O)[C@H](C)O2)Oc2ccc(cc2Cl)[C@H]1O [vancomycin, reference compound]
onset of action ([2]; mouse CDI model): more rapid onset of action | cure rate ([2]; mouse CDI model): 30% | survival ([2]; mouse CDI model): 100%
